# Structures can show the parent of a compound that is named as a salt.
row,Structure (SMILES),melting point
1,COC(=O)C1=C(CCc2ccccc2NS(=O)(=O)C(F)(F)F)NC(CC(=O)N2CCN(C3CC4CCC(C3)N4C)CC2)=C(C(=O)OC)C1c1c(Cl)cccc1Cl (stereo not shown) (as salt: HCl),218 to 220 °C (dec.)
2,CNC(=O)CCC(=O)NCc1ccccc1CCC1=C(C(=O)OC)C(c2c(Cl)cccc2Cl)C(C(=O)OC)=C(CC(=O)N2CCN(C3CC4CCC(C3)N4C)CC2)N1 (stereo not shown) (as salt: citrate),158 to 160 °C (dec.)
3,COC(=O)C1=C(CCc2ccccc2C(=O)N2CCNCC2)NC(CC(=O)N2CCN(C3CC4CCC(C3)N4C)CC2)=C(C(=O)OC)C1c1c(Cl)cccc1Cl (stereo not shown) (as salt: HCl),198 to 200 °C (dec.)
4,CCN(CC)Cc1ccccc1CCC1=C(C(=O)OC)C(c2c(Cl)cccc2Cl)C(C(=O)OC)=C(CC(=O)N2CCN(C3CC4CCC(C3)N4C)CC2)N1 (stereo not shown) (as salt: HCl),77 to 79 °C (dec.)
5,COC(=O)C1=C(CCc2ccccc2NS(C)(=O)=O)NC(CC(=O)N2CCN(C3CC4CCC(C3)N4C)CC2)=C(C(=O)OC)C1c1c(Cl)cccc1Cl (stereo not shown) (as salt: HCl),143 °C
6,CCNCCOCc1ccccc1CCC1=C(C(=O)OC)C(c2c(Cl)cccc2Cl)C(C(=O)OC)=C(CC(=O)N2CCN(C34CCCC(CC3)N4C)CC2)N1 (stereo not shown) (as salt: citrate),151 °C
7,COC(=O)C1=C(CCc2ccccc2COCCN2CCCC2)NC(CC(=O)N2CCN(C3CC4CCC(C3)N4C)CC2)=C(C(=O)OC)C1c1c(Cl)cccc1Cl.O=C(O)CCC(=O)O (stereo not shown),168 °C (dec.)
